Measured values published in US12024707B2, “Methods and compositions for modulating lncRNAs and methods of treatment based on lncRNA expression” (Washington University, priority 2020, dated 2024).
“And” between values parts separate entries of the source, which are not always exact repeats. Identical values can stand only once. Counter-ions that a name gives are not always drawn. Like-named read-outs stand apart in the source and are kept apart here.

How the values were obtained:
[1] = system: LoVo RAMS11 CRISPR KO cells; test: Individual drug IC50 / cell viability assays in RAMS11 CRISPR KO cells; type: cell-based; conditions: LoVo RAMS11 CRISPR KO vs wild-type treated cells; 0.5 μM doxorubicin or 0.7 μM epirubicin
Description: The NIH approved oncology library of 119 drugs (AOD6 plate 4825-1 and AOD6 plate 4826) was received from the NIH National Cancer Institute DTP Developmental Therapeutics Program. Drugs were diluted in DMSO to 1 mM and the well assignments were rearranged so drugs were confined to the inner 60 wells of 96-well plates. HT29 RAMS11 overexpressing Clone1 and Clone2 cell lines were seeded at 5000 cells per well in a 96-well plate. The next day serial diluted drug was added to pre-seeded plates in media containing 1% DMSO vehicle, using a Robbins Hydra 96 micro dispenser. Two 96-well plates of cells were used as vehicle controls. The plates were incubated for 3 days. Percent viability was scored by incubating cells for 3 h with resazurin sodium (0.023 mg/mL, Sigma R7017). The reaction was stopped by the addition of SDS (1% final concentration). Fluorescence Ex/Em 540/590 was read in a Biotek Synergy H1 plate reader (Winooski, VT). The fluorescence values for the vehicle plates were averaged and percent viability was determined by the formula: Percent viability=[…]/(average vehicle−average resazurin in media blank)×100. We removed drugs that were undetectable, or out of range, by resazurin assay, leaving 118 drugs to assess in the study (TABLE 3). Values with more than a 1.5-fold change in both RAMS11 Clone1 and Clone2 overexpressing cell lines were used to determine significance. Individual drug IC50 assays were done in a similar manner as described above with CRISPR KO cells. Assays were repeated more than three times.

[2] = system: HT29 RAMS11 overexpressing cells; test: High-throughput viability assay (resazurin), 119 FDA-approved anticancer drugs, RAMS11 overexpressing cells (Clone1, Clone2)
[3] = OE1 (RAMS11 overexpression clone 1), 0.1 uM drug, 72 h, vs empty vector control
[4] = OE1 (RAMS11 overexpression clone 1), 1 uM drug, 72 h, vs empty vector control
[5] = OE1 (RAMS11 overexpression clone 1), 10 uM drug, 72 h, vs empty vector control
[6] = OE2 (RAMS11 overexpression clone 2), 0.1 uM drug, 72 h, vs empty vector control
[7] = OE2 (RAMS11 overexpression clone 2), 1 uM drug, 72 h, vs empty vector control
[8] = OE2 (RAMS11 overexpression clone 2), 10 uM drug, 72 h, vs empty vector control

Compound	increase in drug sensitivity [1]	Viability Fold Change [2, 3]	Viability Fold Change [2, 4]	Viability Fold Change [2, 5]	Viability Fold Change [2, 6]	Viability Fold Change [2, 7]	Viability Fold Change [2, 8]	increase in drug resistance in HT29 RAMS11 overexpressing cells ([2]; topoisomerase inhibitors, vs empty vector cells)	Viability Fold Change [2]
COc1cccc2c1C(=O)c1c(O)c3c(c(O)c1C2=O)C[C@@](O)(C(=O)CO)C[C@@H]3O[C@H]1C[C@H](N)[C@H](O)[C@H](C)O1 [doxorubicin HCl, reference compound]	1.5 fold	1.113	1.973	2.438	1.165	1.939	2.403	at least a two-fold increase in drug resistance	–
COc1cc2c(Nc3ccc(Br)cc3F)ncnc2cc1OCC1CCN(C)CC1 [Vandetanib]	–	0.9025	0.8127	1.181	0.971	0.9162	1.142	–	–
C[C@]12CC[C@@H]3c4ccc(OC(=O)N(CCCl)CCCl)cc4CC[C@H]3[C@@H]1CC[C@@H]2O [Estramustine]	–	0.97	1.105	1.034	0.951	1.223	1.025	–	–
N.N.[Cl][Pt][Cl] [Cisplatin]	–	1.023	0.9277	0.9406	0.9583	0.9782	0.9961	–	–
CCc1c2c(nc3ccc(OC(=O)N4CCC(N5CCCCC5)CC4)cc13)-c1cc3c(c(=O)n1C2)COC(=O)[C@]3(O)CC [Irinotecan HCl]	–	0.9198	0.9608	1.151	0.9682	0.9711	1.068	–	–
CN(C)c1nc(N(C)C)nc(N(C)C)n1 [Altretamine]	–	0.949	0.9105	0.845	0.9299	0.9672	0.9171	–	–
CNNCc1ccc(C(=O)NC(C)C)cc1 [Procarbazine]	–	1.003	1.042	0.9825	0.9328	1.046	0.9303	–	–
CO[C@H]1C[C@@H]2CC[C@@H](C)[C@@](O)(O2)C(=O)C(=O)N2CCCC[C@H]2C(=O)O[C@H]([C@H](C)C[C@@H]2CC[C@@H](OCCO)[C@H](OC)C2)CC(=O)[C@H](C)/C=C(\C)[C@@H](O)[C@@H](OC)C(=O)[C@H](C)C[C@H](C)/C=C/C=C/C=C/1C [Everolimus]	–	0.6419	0.7474	0.6863	0.6484	0.7943	0.721	–	–
CCCCCOC(=O)Nc1nc(=O)n([C@@H]2O[C@H](C)[C@@H](O)[C@H]2O)cc1F [Capecitabine]	–	1.291	0.7939	0.9609	1.102	0.8093	1.166	–	–
C=C1C[C@@H]2[C@H](CC[C@]3(C)C(=O)CC[C@@H]23)[C@@]2(C)C=CC(=O)C=C12 [Exemestane]	–	0.8651	0.981	0.9176	1.047	1.008	1.06	–	–
N.N.O=C([O-])C1(C(=O)[O-])CCC1.[Pt+2] [Carboplatin]	–	1.016	1.047	1.103	0.9697	1.074	0.9969	–	–
C#Cc1cccc(Nc2ncnc3cc(OCCOC)c(OCCOC)cc23)c1 [Erlotinib HCl]	–	0.9958	1.169	1.179	0.9899	1.172	1.215	–	–
Nc1nc2nc[nH]c2c(=S)[nH]1 [Thioguanine]	–	0.9423	0.9288	0.9702	0.8995	0.8724	1.01	–	–
Cc1nc(Nc2ncc(C(=O)Nc3c(C)cccc3Cl)s2)cc(N2CCN(CCO)CC2)n1 [Dasatinib]	–	0.7242	1.289	1.518	0.7852	1.567	1.607	–	–
CC(C)(C#N)c1cc(Cn2cncn2)cc(C(C)(C)C#N)c1 [Anastrozole]	–	0.876	0.9957	0.9385	0.9749	1.001	0.9255	–	–
CC(C)C[C@H](NC(=O)[C@H](CCc1ccccc1)NC(=O)CN1CCOCC1)C(=O)N[C@@H](Cc1ccccc1)C(=O)N[C@@H](CC(C)C)C(=O)[C@@]1(C)CO1 [Carfilzomib]	–	3.32	2.1	1.625	2.675	1.654	1.343	–	–
CC(=O)[C@]1(O)Cc2c(O)c3c(c(O)c2[C@@H](O[C@H]2C[C@H](N)[C@H](O)[C@H](C)O2)C1)C(=O)c1ccccc1C3=O [Idarubicin hydrochloride]	–	1.365	1.73	3.603	1.573	1.623	3.696	–	–
CN(N=O)C(=O)N[C@@H](C=O)[C@@H](O)[C@H](O)[C@H](O)CO [Streptozocin]	–	1.06	1.011	0.905	0.9729	1.036	0.9955	–	–
CNC(=O)c1cc(Oc2ccc(NC(=O)Nc3ccc(Cl)c(C(F)(F)F)c3)c(F)c2)ccn1 [Regorafenib]	–	0.938	0.9476	1.158	0.9919	1.09	1.143	–	–
CNC(=O)c1ccccc1Sc1ccc2c(/C=C/c3ccccn3)n[nH]c2c1 [Axitinib]	–	0.9514	0.9382	0.8636	0.911	1.101	0.8143	–	–
O=P1(N(CCCl)CCCl)NCCCO1 (stereo not shown) [Cyclophosphamide]	–	–	–	–	–	–	–	–	0.857 and 0.9632 and 0.9808 and 0.899 and 1.019 and 0.881
CC(=O)Nc1cccc(-n2c(=O)n(C3CC3)c(=O)c3c(Nc4ccc(I)cc4F)n(C)c(=O)c(C)c32)c1 [Trametinib]	–	1.35	1.732	1.975	1.213	1.641	1.886	–	–
NCC(=O)CCC(=O)O [Aminolevulinic Acid]	–	0.8803	0.9655	1.022	0.914	1.058	0.9613	–	–
O=C1CCC(N2C(=O)c3ccccc3C2=O)C(=O)N1 (stereo not shown) [Thalidomide]	–	0.9251	0.9878	0.9064	0.8995	1	1.074	–	–
Bleomycin	–	0.921	1.039	1.025	0.96	–	–	–	–
Nc1nc2[nH]cc(CCc3ccc(C(=O)N[C@@H](CCC(=O)O)C(=O)O)cc3)c2c(=O)[nH]1 [Pemetrexed disodium salt]	–	0.9118	0.9424	1.886	0.9953	0.9455	1.933	–	–
S=c1nc[nH]c2nc[nH]c12 [Mercaptopurine]	–	0.964	0.9982	1.006	0.9412	1.029	1.05	–	–
